Test results taken from patent publication US20260053958A1, “HALOGENATED SOMATOSTATIN ANALOGS WITH MULTIPLE SOMATOSTATIN RECEPTOR SUBTYPE SELECTIVITY” (GRAFTON THERAPEUTICS SÀRL, priority 2022, published 2026).
Numbered stars: 1 amine (or outer) side, 2 acyl side, 3 side chain; on linkers, the order of the positions; unused ones are H or OH. Bridge positions count the residues as written; N and C are the ends. Square brackets hold non-standard residues; d marks the D form. Peptide text beside a SMILES is read from it. ξ: configuration not given here. Tyr(3-Br) = N[C@@H](Cc1ccc(O)c(Br)c1)C(=O)O; Tyr(3-Cl) = N[C@@H](Cc1ccc(O)c(Cl)c1)C(=O)O; X2 = Nc1ccc(C[C@@H](N[*:1])C(=O)[*:2])cc1Br; X3 = Nc1ccc(C[C@@H](N[*:1])C(=O)[*:2])cc1Cl; X1 = Nc1ccc(C[C@@H](N[*:1])C(=O)[*:2])cc1F; Tyr(3-F) = N[C@@H](Cc1ccc(O)c(F)c1)C(=O)O; Thr(3ξ) = CC(O)[C@H](N)C(=O)O

How the values were obtained:
[1] = target: T1, SST5 (Homo sapiens, UniProt P35346); assay: Radioligand binding competition assay against [125I]SS-14, SST5; conditions: CHO-K1 membrane extracts
T1 construct: expressed in transfected cells; host or cells: CHO-K1 (membrane extracts)
Description: (§1) Reference values thus obtained were compared to historical values obtained from the same receptor and used to validate the experimental session. […] For replicate determinations, the maximum variability tolerated in the test was ±20% around the average of replicates.
(§2) For the SST2 assay, membrane extracts from CHO-K1 cells (accession number NP_001041.1) were used. For the SST5 assay, membrane extracts from CHO-K1 cells (accession number NP_001044.1) were used.
(§3) Nonspecific binding was determined by co-incubation with 200-fold excess of the cold competitor […]. The samples were incubated at a final volume of 0.1 mL at a temperature and for a duration optimized for each receptor and then filtered over filter plates. Filters were washed six times with 0.5 mL of ice-cold washing buffer (optimized for each receptor) and 50 μL of Microscint™ 20 (Packard) were added in each well. The plates were incubated 15 minutes on an orbital shaker and then counted with a TopCount™ for 1 min/well.

[2] = test system: AtT-20 cells; assay: Inhibition of ACTH release from AtT-20 cells (ELISA); type: cell-based, mouse; conditions: 72 hours, in comparison to untreated AtT-20 cells
Description: AtT-20 cells were seeded in 24-well plates (20,000 cells/well) in complete culture medium and incubated overnight at standard incubator conditions (37° C., 5% CO2) to promote adhesion.
(§4) All compounds were studied at concentrations of 5 nM and 10 nM; untreated cell controls were also studied. A biological duplicate was reproduced for each concentration of each drug. The treatment exposure period was 72 h. At the 72 h time-point, cell supernatant was collected and deposited into 1.5 mL test tubes that were then centrifuged at 13,400 rpm for 5 minutes to remove any cell residues. The samples were stored at −80° C. until the time of analysis.
ACTH levels were quantified using a Sandwich-ELISA technique ((Abcam Mouse/Rat ACTH ELISA Kit #ab263880) according to the manufacturer's instructions. Samples and standards were added individually to the wells, followed by the antibody mix. After incubation, the wells were washed to remove unbound material, and development solution was added, which was catalysed, and the reaction was subsequently stopped. The signal was generated proportionally to the amount of bound analyte and the intensity was measured at 450 nm. Results are shown in Table 8 and in FIG. 4A-4E.

[3] = test system: GH3 cells; assay: Inhibition of GH release from GH3 cells (ELISA); type: cell-based, rat; conditions: 72 hours, in comparison to untreated GH3 cells
Description: as §4
GH levels in the supernatant were quantified using a Sandwich ELISA assay (Millipore Rat/Mouse Growth Hormone ELISA kit #EZRMGH-45K) according to the manufacturer's instructions. This method involved the initial capture of supernatant rat GH to the wells of a microtiter plate coated by a pre-titered amount of anti-Growth Hormone polyclonal antibodies. Unbound GH was washed away and then a second biotinylated anti-GH polyclonal antibody was bound to the captured GH molecules. Unbound GH was again washed away and there followed a step of conjugation of horseradish peroxidase to the immobilized biotinylated antibodies. After a final wash step, immobilized antibody-enzyme conjugates were quantified using horseradish peroxidase activities in the presence of the substrate 3,3′,5,5′-tetramethylbenzidine. The enzyme activity was measured spectrophotometrically. Concentrations of rat GH were derived by interpolation from a reference curve generated in the same assay with reference standards of known concentrations of rat GH.

[4] = test system: NT-3 cells; assay: Inhibition of insulin release from NT-3 cells (ELISA); type: cell-based, human; conditions: 5 days, in comparison to untreated NT-3 cells
Description: For the study, 24-well plates were coated with 1 mg/ml of human placenta-derived type IV collagen in 950 μL of PBS) and fully dried. NT3 cells were seeded at a density of 20,000 cells/well in complete culture medium (0.5 ml), including growth factors and incubated overnight at 37° C., with 5% CO2.
All drugs were administered at 5 nM and 10 nM and biological duplicates were studied. The treatment exposure period was 5 days. Untreated cell controls were also studied. After 5 days, the supernatants were collected and deposited into 1.5 ml test tubes that were then centrifuged at 13,400 rpm for 5 minutes to remove any cell residue. The samples were stored at −80° C. until the time of analysis.
Secreted insulin levels in the supernatant were studied using a Sandwich-ELISA method (Elabscience® Human Insulin ELISA Kit #E-EL-H2665) according to the manufacturer's instructions. A micro-ELISA plate was pre-coated with an antibody specific to human insulin. Samples or Standards were added to the micro-ELISA plate wells and combined with the specific antibody. Then a biotinylated detection antibody specific for human insulin and Avidin-Horseradish Peroxidase (HRP) conjugate were added successively to each micro plate well, incubated and then washed. Substrate solution was added to each well. Only those wells that contain human insulin, biotinylated detection antibody and Avidin-HRP conjugate appear blue in color. The enzyme-substrate reaction was terminated by the addition of stop solution. The optical density (OD) was measured spectrophotometrically at a wavelength of 450 nm±2 nm, and the concentration of human insulin was then derived from the standard curve.

[5] = test system: NT-3 cells; assay: Inhibition of proliferation of NT-3 cells (WST-1 assay); type: cell-based, human; conditions: 5 nM, 5 days, in comparison to untreated NT-3 cells
Source text: The water-soluble tetrazolium-1 (WST-1) assay is a standard method for assessing cell viability and proliferation in vitro. The WST-1 assay method is based on the cleavage of tetrazolium salts in culture medium to the dye, formazan, by active mitochondrial enzymes. As viable cell numbers change, so too does the action of mitochondrial dehydrogenases and cleavage of tetrazolium salts. The formation of formazan in the cell medium can be assayed spectrophotometrically as a measure of the number of living cells in the sample well. The effect of various compounds on the cell viability or proliferation rates can be measured as compared with controls or Standards.
All compounds were studied at a dose of 5 nM, and appropriate untreated controls were included.
NT-3 cells were seeded in complete RPMI-1640 medium (100 μl) into a 96-well microplate (20.000 cells/well). This was incubated at 37° C. in 5% CO2 to allow cells to adhere. Cells were treated with the test compounds at a concentration of 5 nM for a period of 5 days without changing the medium and without adding fresh compounds. […] The absorbance of the formazan dye was measured at 450 nm and 690 nm using a microplate reader. […] Average absorbance values were calculated for each group at 450 and 690 nm wavelengths and corrected for blank values. […]

[6] = target: T2, SST2 (Homo sapiens, UniProt P30874); assay: cAMP HTRF assay; type: cell-based; set-up: expressed in transfected cells; host or cells: CHO-K1; conditions: CHO-K1 cells expressing SST2, forskolin, 30 min
Description: as §1
CHO-K1 cells (accession number NP_001041.1) expressing human recombinant receptor SST2 were grown prior to the test in media without antibiotic and were detached by gentle flushing with PBS-EDTA (5 mM EDTA).
In a 96-well plate, 12 μl of cells were mixed with 6 μl of the test compound at increasing concentrations and 6 μl of forskolin, then incubated for 30 min at room temperature. The final concentrations of test compound were 0.003 nM; 0.01 nM; 0.03 nM; 0.1 nM; 0.3 nM; 1 nM; 3 nM; 10 nM; 30 nM; and 100 nM. After addition of lysis buffer containing cAMP-d2 and anti-cAMP cryptate detection reagents, the plates were incubated for one hour at room temperature, and fluorescence ratios were measured using an HTRF kit according to the manufacturer specification. The results are shown below in Table 1 and in FIGS. 1A-1D.

[7] = target: T2, SST2; assay: Radioligand binding competition assay against [125I]SS-14, SST2; set-up: expressed in transfected cells; host or cells: CHO-K1 (membrane extracts); conditions: CHO-K1 membrane extracts
Description: as §1, §2, §3

T2 sequence (P30874 whole entry): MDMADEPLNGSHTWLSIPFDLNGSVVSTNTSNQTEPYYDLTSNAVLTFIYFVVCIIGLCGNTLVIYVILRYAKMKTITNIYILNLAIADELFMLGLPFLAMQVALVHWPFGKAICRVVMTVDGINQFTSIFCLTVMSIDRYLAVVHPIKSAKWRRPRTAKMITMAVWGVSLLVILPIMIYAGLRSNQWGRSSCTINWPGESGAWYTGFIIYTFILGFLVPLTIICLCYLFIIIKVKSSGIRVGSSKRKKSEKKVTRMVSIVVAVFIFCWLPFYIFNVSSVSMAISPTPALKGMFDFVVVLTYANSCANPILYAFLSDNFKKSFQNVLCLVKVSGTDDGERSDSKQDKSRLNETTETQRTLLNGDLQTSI
T1 sequence (P35346 whole entry): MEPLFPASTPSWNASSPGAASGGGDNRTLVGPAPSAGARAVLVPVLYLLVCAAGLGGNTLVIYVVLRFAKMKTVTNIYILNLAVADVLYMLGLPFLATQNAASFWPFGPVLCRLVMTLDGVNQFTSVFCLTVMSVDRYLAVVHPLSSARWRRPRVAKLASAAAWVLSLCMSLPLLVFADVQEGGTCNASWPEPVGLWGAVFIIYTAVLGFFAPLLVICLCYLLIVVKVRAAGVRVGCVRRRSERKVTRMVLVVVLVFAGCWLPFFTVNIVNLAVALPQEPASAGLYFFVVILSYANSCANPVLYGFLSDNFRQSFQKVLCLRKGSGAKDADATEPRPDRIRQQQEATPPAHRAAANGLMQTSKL

Structure (SMILES)	IC50 ([1]; Table 7, third assay (Day 3)) [nM]	EC50 [6] [nM]	IC50 ([7]; Table 4, third assay (Day 3)) [nM]	IC50 ([1]; Table 6, second assay (Day 2)) [nM]	IC50 ([7]; Table 3, second assay (Day 2)) [nM]	IC50 ([7]; Table 2, first assay (Day 1)) [nM]	Fold Change in Measured ACTH ([2]; 5 nM)	Fold Change in Measured ACTH ([2]; 10 nM)	Fold Change in Measured GH ([3]; 5 nM)	Fold Change in Measured GH ([3]; 10 nM)	Fold Change in Measured Insulin ([4]; 5 nM)	Fold Change in Measured Insulin ([4]; 10 nM)	Fold Change in Proliferation [5]
CC(C)[C@@H]1NC(=O)[C@H](CCCCN)NC(=O)[C@@H](Cc2c[nH]c3ccccc23)NC(=O)[C@H](Cc2ccc(O)c(Cl)c2)NC(=O)[C@H](NC(=O)[C@H](N)Cc2ccc(N)c(Cl)c2)CSSC[C@H](C(=O)N[C@H](C(N)=O)C(C)O)NC1=O (stereo partly drawn) [Compound 3, (4-amino-3-Cl)-D-Phe-c[Cys-(3-Cl)-Tyr-D-Trp-Lys-Val-Cys]-Thr-NH2] (H-[X3][dC][Tyr(3-Cl)][dW]KV[dC][Thr(3ξ)]-NH2; disulfide 2-7)	–	0.25	–	0.86	0.48	–	0.68	0.76	1.04	1.02	0.62	0.56	–
CC(C)[C@@H]1NC(=O)[C@H](CCCCN)NC(=O)[C@@H](Cc2c[nH]c3ccccc23)NC(=O)[C@H](Cc2ccc(O)c(Cl)c2)NC(=O)[C@H](NC(=O)[C@H](N)Cc2ccc(N)c(I)c2)CSSC[C@H](C(=O)N[C@H](C(N)=O)C(C)O)NC1=O (single isomer, unassigned) [Compound 2, (4-amino-3-Cl)-D-Phe-c[Cys-(3-I)-Tyr-D-Trp-Lys-Val-Cys]-Thr-NH2]	–	–	–	–	–	0.74	–	–	–	–	–	–	–
CC(C)[C@@H]1NC(=O)[C@H](CCCCN)NC(=O)[C@@H](Cc2c[nH]c3ccccc23)NC(=O)[C@H](Cc2ccc(O)c(Cl)c2)NC(=O)[C@H](NC(=O)[C@H](N)Cc2ccc(N)c(I)c2)CSSC[C@H](C(=O)N[C@H](C(N)=O)C(C)O)NC1=O (single isomer, unassigned) [Compound 1, (4-amino-3-I)-D-Phe-c[Cys-(3-Cl)-Tyr-D-Trp-Lys-Val-Cys]-Thr-NH2]	–	–	–	–	–	0.37	–	–	–	–	–	–	–

The next lines start with results.

IC50 ([1]; Table 7, third assay (Day 3)) [nM]	EC50 [6] [nM]	IC50 ([7]; Table 4, third assay (Day 3)) [nM]	IC50 ([1]; Table 6, second assay (Day 2)) [nM]	IC50 ([7]; Table 3, second assay (Day 2)) [nM]	IC50 ([7]; Table 2, first assay (Day 1)) [nM]	Structure (SMILES)	Fold Change in Measured ACTH ([2]; 5 nM)	Fold Change in Measured ACTH ([2]; 10 nM)	Fold Change in Measured GH ([3]; 5 nM)	Fold Change in Measured GH ([3]; 10 nM)	Fold Change in Measured Insulin ([4]; 5 nM)	Fold Change in Measured Insulin ([4]; 10 nM)	Fold Change in Proliferation [5]
3.41	1.91	2.6	–	–	–	CC(C)[C@@H]1NC(=O)[C@H](CCCCN)NC(=O)[C@@H](Cc2c[nH]c3ccccc23)NC(=O)[C@H](Cc2ccc(O)c(F)c2)NC(=O)[C@H](NC(=O)[C@H](N)Cc2ccc(N)c(F)c2)CSSC[C@H](C(=O)N[C@H](C(N)=O)C(C)O)NC1=O (stereo partly drawn) [Compound 4, (4-amino-3-F)-D-Phe-c[Cys-(3-F)-Tyr-D-Trp-Lys-Val-Cys]-Thr-NH2] (H-[X1][dC][Tyr(3-F)][dW]KV[dC][Thr(3ξ)]-NH2; disulfide 2-7)	0.37	0.37	0.94	0.76	0.09	0.10	0.93
0.79	0.16	0.54	–	–	–	CC(C)[C@@H]1NC(=O)[C@H](CCCCN)NC(=O)[C@@H](Cc2c[nH]c3ccccc23)NC(=O)[C@H](Cc2ccc(O)c(Br)c2)NC(=O)[C@@H](NC(=O)[C@H](N)Cc2ccc(N)c(Br)c2)CSSC[C@@H](C(=O)N[C@H](C(N)=O)[C@@H](C)O)NC1=O [Compound 5, (4-amino-3-Br)-D-Phe-c[Cys-(3-Br)-Tyr-D-Trp-Lys-Val-Cys]-Thr-NH2] (H-[X2]C[Tyr(3-Br)][dW]KVCT-NH2; disulfide 2-7)	0.68	0.77	0.72	0.75	0.12	0.18	0.52
